Reference: patent US6673814B2, “Delivery systems and methods for noscapine and noscapine derivatives, useful as anticancer agents” (Emory University, priority 1997, dated 2004)

Key:
[1] = test system: HL-60 cells; assay: Apoptosis of HL-60 cells, DAPI staining of nuclear chromatin; type: cell-based; conditions: for Apoptic Cell Percentage: 24 hours
Experimental: Morphological changes in the nuclear chromatin of HL-60 cells undergoing apoptosis were detected by staining with 4′, 6-diamidino-2-phenylindole (DAPI). In brief, 0.5×10^6 to 3×10^6 cells were fixed with 4% glutaraledehyde, 0.2% Triton x-100, in PBS and incubated at room temperature for 10 min., then centrifuged at 1000×9 for 10 min., resuspended in 20 μ1 0.1% DAPI ethanol. Following 15 min. incubation at room temperature, at 10 μl aliquot was placed on a glass slide, and 400 cells per slide were scored for the incidence of apoptotic chromatin changes with a fluorescence microscope.

[2] = test system: solid lymphoid tumors; assay: Apoptosis in solid lymphoid tumors induced in mice, Haemotoxline and Eosine staining; type: in vivo; conditions: noscapine treated mice, microscopic examination
[3] = test system: thymocyte cells; assay: M phase arrest, alpha-tubulin immunofluorescence and flow cytometry, thymocyte cells; type: cell-based; conditions: 20 μM noscapine, 24 hr
Experimental: (§1) Hela cells were grown in DMEM supplemented with 10% fetal calf serum, 1 mM L-glutamine and 1% penicillin/streptomycin. The tumor cell line E-G7-OV A […] [Moore, M. W., et al., Cell. 54, 777 (1988)] was grown in RPM1 1640 with 10% fetal calf serum, 1% sodium pyruvate, 1 mM L-glutamine, 0.1% gentamycin, 50 μtM β-mercaptoethanol. Cells were grown at 37° C. in a 5% CO2 atmosphere. Cell viability was assessed by trypan blue exclusion analysis. Cell numbers were determined using a hemacytometer, C57BL/6 […] mice, 8 to 12 weeks of age, were obtained from Harian Sprague Dawley, Inc. (Indiananapolis, Ind.). Mice were maintained on standard laboratory chow and water ad libitum, in a temperature and light controlled environment. For immunofluorescence, both Hela and thymocyte cells were treated identically except the Hela cells were grown onto glass coverslips while EL4 thymocytes were put on glass coverslips after fixation. […]
(§2) Then cells were washed with 1% BSA-PBS solution for 10 min. at room temperature before incubating with a 1:200 dilution of a rhodamine labeled goat anti-mouse IgG antibody at room temperature for 45 min., then the coverslips were rinsed by 1% BSA/PBS solution for 10 min. and labeled by DAPI (4′, 6-diamino-2-phenyliudole) for another 10 min. at room temperature. […] Cells were examined with a fluorescence microscope. […] The samples were read on a cytometer.

[4] = test system: lymphocyte cells; assay: Apoptosis initiation: oligonucleosomal DNA fragmentation, DAPI staining, nick end labeling; type: cell-based; conditions: noscapine treatment 0 to 24 hr
Experimental: Oligonucleosomal fragmentation of genomic DNA was determined according to Walton, M. I. et. al., Cancer. Res. 53, 1853 (1993). An aliquot of 3.3×10^6 cells in 10 ml medium was incubated with […] for different time periods ranging from 0 to 24 hr. At the end of incubation, cells were pelleted and washed twice with ice-cold PBS, and lysed in 250 μl 1% (v/v) NP-40 detergent containing 0.5 mg/ml proteinase K in PBS solution on ice for 60 min. Samples were centrifuged, and the supernatants were removed and incubated with 5 μl 10 mg/ml Rnase A at 37° C. for 40 min. An aliquot of 1 ml anhydrous ethanol was added, tubes were placed at −20° C. for 20 min., then centrifuged to pellet DNA. […]
Morphological changes in the nuclear chromatin of cells undergoing apoptosis were detected by staining with 4′, 6-diamidino-2-phenylindole (DAPI). […] Following 15 min. incubation at room temperature, a 10 μl aliquot was placed on a glass slide, and 400 cells per slide were scored for the incidence of apoptotic chromatin changes with a fluorescence microscope. […]
After the slides were rinsed with PBS, 50 μl converter-POD solution was added on samples and incubated for 30 min. at 37° C. […] After the slides were rinsed with PBS for another 3 times, coverslips were mounted and analyzed with a light microscope.

[5] = test system: Hela cells; assay: M phase arrest, alpha-tubulin immunofluorescence and flow cytometry, Hela cells; type: cell-based; conditions: 20 μM noscapine, 24 hr
Experimental: as §1, §2

[6] = test system: bovine brain tubulin; assay: Microtubule assembly, turbidity at 350 nm; type: biochemical; conditions: 20 μM noscapine, 37° C., G-PEM buffer
Experimental: (§3) Phosphocellulose purified bovine brain tubulin was employed throughout these biophysical experiments. Fluorescence titration for determining binding constants was performed according to Peyrot, V. et al., Biochemistry 31, 11125 (1992). In brief; at room temperature, 2 μM tubulin in 100 mM PIPES, 2 mM EGTA, 1 mM MgCl2 was excited at 278 nm, and the fluorescence emission spectra were recorded with bandwidths 2 nm. […] The concentration of noscapine was raised in increments of 0.5 μM, until the decrease in the fluorescence intensity was saturated. The value of the dissociation constant and the number of sites were obtained from Scatchard plots using the equation, […], where r is the ratio of the concentration of bound ligand to the total protein concentration and n is the number of binding sites. Circular dichroism (CD) spectra measurements were performed in a spectroscometer, in cells (0.1 cm path) at 25° C. Microtubule assembly was recorded on a spectrophotometer with thermocontroler. The cuvettes (0.4 cm path) containing 100 mM PIPES, 2 mM EGTA, 1 mM MgCl2 and 1 mM GTP (G-PEM buffer), and 20 μM noscapine/DMSO were kept at room temperature before addition of tubulin and shifting to 37° C. […] The assembly was monitored by measuring the changes in turbidity at 0.5 min. intervals. Noscapine was dissolved in DMSO at 0.8 mM and stocked at 4° C. […]

[7] = test system: E.G7-OVA cells; assay: Inhibition of tumor growth, E.G7-OVA tumors in C57BL/6 mice; type: in vivo; conditions: 3 mg noscapine every day for three weeks, intraperitoneally or intragastric; vs saline
Experimental: C57BL/6 mice were injected subcutaneously in the right flank with 2×10^6 E.G7-OVA cells. Three days later, mice were injected intraperitoneally, every day for three weeks, either with 200 μl saline (n=10), or with 3 mg noscapine dissolved in 200 μl saline (n=10),. Third group of mice (n=10) was fed 3 mg noscapine via intragastric (i.g.) intubation using a 1 ml syringe fitted with a 20 gauge stainless steel ball point needle. After three weeks, all mice were sacrificed by cervical dislocation. Tumors were removed and weighted. Tumor weights were individually plotted and comparisons between control and treatment groups were analyzed by the Student's test.

[8] = test system: tumors derived from malignant melanoma cells; assay: Melanoma tumor progression in animals; type: in vivo
[9] = target: bovine brain tubulin; assay: Tubulin binding by fluorescence titration, Scatchard plot
Experimental: as §3

| Molecule | initiation of apoptosis [1] | Apoptic Cell Percentage ([1]; 20 μM in DMSO, first trial) | Apoptic Cell Percentage ([1]; 20 μM in DMSO, second trial) | Apoptic Cell Percentage ([1]; 50 μM in DMSO) | apoptotic morphologies of tumor cells [2] | M phase arrest of microtubule arrays [3] | DNA degradation (gel electrophoresis of fragmented genomic DNA, staining of treated cells) [4] | M phase arrest of microtubule arrays [5] | tubulin assembly (absorbance at 350 nm) [6] | tumor weight [7] | reduction of tumor volume compared to untreated animals [8] | Kd ([9]; 2 μM tubulin, room temperature, Scatchard plot, read-out: apparent dissociation constant (Kd)) | fluorescence quenching of tubulin ([9]; excitation 278 nm) |
| --- | --- | --- | --- | --- | --- | --- | --- | --- | --- | --- | --- | --- | --- |
| 1,3-dihydro-4,5-dimethoxy-1-[1-(8-methoxy-2-methyl-6,7-methylenedioxy-1,2,3,4-tetrahydroisoquinolinyl)] isobenzofuran-BH3 [Compound 3] | initiate apoptosis | 37% | 28% | 39% |  |  |  |  |  |  |  |  |  |
| COc1ccc2c(c1OC)CO[C@@H]2[C@H]1c2c(cc3c(c2OC)OCO3)CCN1C [Compound 4, 1,3-diliydro-4,5-dimethoxy-1-[1-(8-methoxy-2-methyl-6,7-methylenedioxy 1,2,3,4-tetrahydroixoquinolinyl)]isobenzofuran] | initiate apoptosis | 48% | 32% | 52% |  |  |  |  |  |  |  |  |  |
| COc1ccc2c(c1OC)C(=O)O[C@@H]2[C@H]1c2c(cc3c(c2OC)OCO3)CCN1C [Noscapine] | initiate apoptosis | 30% | 17% | 27% | many cells in noscapine treated mice with apoptotic morphologies | microtubule arrays are arrested in M phase | progressive DNA degradation with increasing time | microtubule arrays are arrested in M phase | promotes tubulin assembly | significantly reduced tumor weight | ~83% | 1860 nM | affords fluorescence quenching of tubulin |
